US10597388B2, “Pyridazinone herbicides” (FMC CORPORATION, priority 2014, dated 2020)

How the values were obtained:
Experiment in all cases: Test C greenhouse herbicide test, pre- and postemergence
Format in all cases: in vivo
[1] = test system: barnyardgrass (Echinochloa crus-galli)
From the text: (§1) Seeds of plant species selected from blackgrass (Alopecurus myosuroides), ryegrass, Italian (Italian ryegrass, Lolium multiflorum), wheat (winter wheat, Triticum aestivum), galium (catchweed bedstraw, Galium aparine), corn (Zea mays), large crabgrass, large (large crabgrass, Digitaria sanguinalis), foxtail, giant (giant foxtail, Setaria faberii), johnsongrass (Sorghum halepense), lambsquarters (Chenopodium album), morningglory (Ipomoea coccinea), nutsedge, yellow (yellow nutsedge, Cyperus esculentus), pigweed (Amaranthus retroflexus), ragweed (common ragweed, Ambrosia elatior), soybean (Glycine max), barnyardgrass (Echinochloa crus-galli), oilseed rape (Brassica napus), waterhemp (common waterhemp, Amaranthus rudis), and velvetleaf (Abutilon theophrasti) were planted into a blend of loam soil and sand and treated preemergence with test chemicals formulated in a non-phytotoxic solvent mixture which included a surfactant.
(§2) At the same time, plants selected from these crop and weed species and also chickweed (common chickweed, Stellaria media), kochia (Kochia scoparia), and oat, wild (wild oat, Avena fatua), were planted in pots containing Redi-Earth® planting medium (Scotts Company, 14111 Scottslawn Road, Marysville, Ohio 43041) comprising spaghnum peat moss, vermiculite, wetting agent and starter nutrients and treated with postemergence applications of test chemicals formulated in the same manner. Plants ranged in height from 2 to 18 cm (1- to 4-leaf stage) for postemergence treatments. Treated plants and controls were maintained in a greenhouse for 13 to 15 d, after which time all species were compared to controls and visually evaluated. Plant response ratings, summarized in Table C, are based on a scale of 0 to 100 where 0 is no effect and 100 is complete control. A dash (-) response means no test result.

[2] = test system: blackgrass (Alopecurus myosuroides)
From the text: as §1, §2

corn (Zea mays) = test system: corn (Zea mays)
From the text: as §1, §2

[3] = test system: crabgrass, large (large crabgrass, Digitaria sanguinalis)
From the text: as §1, §2

[4] = test system: johnsongrass (Sorghum halepense)
From the text: as §1, §2

[5] = test system: lambsquarters (Chenopodium album)
From the text: as §1, §2

[6] = test system: morningglory (Ipomoea coccinea)
From the text: as §1, §2

[7] = test system: nutsedge, yellow (yellow nutsedge, Cyperus esculentus)
From the text: as §1, §2

[8] = test system: pigweed (Amaranthus retroflexus)
From the text: as §1, §2

[9] = test system: ragweed (common ragweed, Ambrosia elatior)
From the text: as §1, §2

[10] = test system: ryegrass, Italian (Italian ryegrass, Lolium multiflorum)
From the text: as §1, §2

soybean (Glycine max) = test system: soybean (Glycine max)
From the text: as §1, §2

[11] = test system: velvetleaf (Abutilon theophrasti)
From the text: as §1, §2

[12] = test system: waterhemp (common waterhemp, Amaranthus rudis)
From the text: as §1, §2

[13] = test system: wheat (winter wheat, Triticum aestivum)
From the text: as §1, §2

[14] = Postemergence, 31 g ai/ha, 0 to 100 scale (0 no effect, 100 complete control)
[15] = Postemergence, 125 g ai/ha, scale 0 to 100, 0 is no effect, 100 is complete control
[16] = Postemergence, 250 g ai/ha, scale 0 to 100, 0 no effect, 100 complete control, 13 to 15 d
[17] = Preemergence, 31 g ai/ha, scale 0 to 100, 0 is no effect, 100 is complete control
[18] = Preemergence, 62 g ai/ha, scale 0 to 100, 0 is no effect, 100 is complete control
[19] = Preemergence, 125 g ai/ha, scale 0 to 100, 0 is no effect, 100 is complete control
[20] = Preemergence, 250 g ai/ha, scale 0 to 100, 0 no effect, 100 complete control
[21] = postemergence, 62 g ai/ha, scale 0 to 100, 0 no effect, 100 complete control
[22] = Postemergence, 31 g ai/ha, scale 0 to 100 (0 no effect, 100 complete control)
[23] = Postemergence, 62 g ai/ha, 0 to 100 scale (0 no effect, 100 complete control)
[24] = postemergence, 125 g ai/ha, scale 0 to 100, 0 no effect, 100 complete control

Cc1ccc2sc(Br)c(-c3c(O)c(C)nn(C)c3=O)c2c1 [Compound 79]
Barnyardgrass plant response rating [1, 14]: 20
Plant response rating, Barnyardgrass [1, 15]: 30
Plant response rating, Barnyardgrass [1, 16]: 40
Plant response rating, Barnyardgrass [1, 17]: 10
Plant response rating, Barnyardgrass [1, 18]: 15
Plant response rating, Barnyardgrass [1, 19]: 65
Barnyardgrass plant response rating [1, 20]: 85
Barnyardgrass plant response rating [1, 21]: 25
Blackgrass plant response rating [2, 14]: 5
Plant response rating, Blackgrass [2, 15]: 35
Plant response rating, Blackgrass [2, 16]: 50
Plant response rating, Blackgrass [2, 17]: 20
Plant response rating, Blackgrass [2, 18]: 50
Plant response rating, Blackgrass [2, 19]: 60
Blackgrass plant response rating [2, 20]: 85
Blackgrass plant response rating [2, 21]: 10
Corn plant response rating (corn (Zea mays); [14]): 0
Plant response rating, Corn (corn (Zea mays); [15]): 25
Plant response rating, Corn (corn (Zea mays); [16]): 35
Plant response rating, Corn (corn (Zea mays); [17]): 0
Plant response rating, Corn (corn (Zea mays); [18]): 0
Plant response rating, Corn (corn (Zea mays); [19]): 5
Corn plant response rating (corn (Zea mays); [20]): 5
Corn plant response rating (corn (Zea mays); [21]): 0
Crabgrass, Large plant response rating [3, 14]: 20
Plant response rating, Crabgrass, Large [3, 15]: 30
Plant response rating, Crabgrass, Large [3, 16]: 35
Plant response rating, Crabgrass, Large [3, 17]: 25
Plant response rating, Crabgrass, Large [3, 18]: 25
Plant response rating, Crabgrass, Large [3, 19]: 20
Crabgrass, Large plant response rating [3, 20]: 30
Crabgrass, Large plant response rating [3, 21]: 25
Johnsongrass plant response rating [4, 14]: 5
Plant response rating, Johnsongrass [4, 15]: 10
Plant response rating, Johnsongrass [4, 16]: 10
Plant response rating, Johnsongrass [4, 17]: 10
Plant response rating, Johnsongrass [4, 18]: 35
Plant response rating, Johnsongrass [4, 19]: 40
Johnsongrass plant response rating [4, 20]: 30
Johnsongrass plant response rating [4, 21]: 5
Lambsquarters plant response rating [5, 14]: 85
Plant response rating, Lambsquarters [5, 15]: 98
Plant response rating, Lambsquarters [5, 16]: 100
Plant response rating, Lambsquarters [5, 17]: 100
Plant response rating, Lambsquarters [5, 18]: 95
Plant response rating, Lambsquarters [5, 19]: 100
Lambsquarters plant response rating [5, 20]: 100
Lambsquarters plant response rating [5, 21]: 95
Morningglory plant response rating [6, 14]: 100
Plant response rating, Morningglory [6, 15]: 100
Plant response rating, Morningglory [6, 16]: 98
Plant response rating, Morningglory [6, 17]: 90
Plant response rating, Morningglory [6, 18]: 95
Plant response rating, Morningglory [6, 19]: 98
Morningglory plant response rating [6, 20]: 98
Morningglory plant response rating [6, 21]: 100
Nutsedge, Yellow plant response rating [7, 14]: 85
Plant response rating, Nutsedge, Yellow [7, 15]: 80
Plant response rating, Nutsedge, Yellow [7, 16]: 85
Plant response rating, Nutsedge, Yellow [7, 17]: 25
Plant response rating, Nutsedge, Yellow [7, 18]: 45
Plant response rating, Nutsedge, Yellow [7, 19]: 90
Nutsedge, Yellow plant response rating [7, 20]: 90
Nutsedge, Yellow plant response rating [7, 21]: 80
Pigweed plant response rating [8, 14]: 90
Plant response rating, Pigweed [8, 15]: 98
Plant response rating, Pigweed [8, 16]: 98
Plant response rating, Pigweed [8, 17]: 100
Plant response rating, Pigweed [8, 18]: 100
Plant response rating, Pigweed [8, 19]: 100
Pigweed plant response rating [8, 20]: 100
Pigweed plant response rating [8, 21]: 98
Ragweed plant response rating [9, 14]: 90
Plant response rating, Ragweed [9, 15]: 98
Plant response rating, Ragweed [9, 16]: 98
Plant response rating, Ragweed [9, 17]: 90
Plant response rating, Ragweed [9, 18]: 95
Plant response rating, Ragweed [9, 19]: 98
Ragweed plant response rating [9, 20]: 100
Ragweed plant response rating [9, 21]: 95
Ryegrass, Italian plant response rating [10, 14]: 50
Plant response rating, Ryegrass, Italian [10, 15]: 85
Plant response rating, Ryegrass, Italian [10, 16]: 85
Plant response rating, Ryegrass, Italian [10, 17]: 20
Plant response rating, Ryegrass, Italian [10, 18]: 90
Plant response rating, Ryegrass, Italian [10, 19]: 90
Ryegrass, Italian plant response rating [10, 20]: 90
Ryegrass, Italian plant response rating [10, 21]: 60
Soybean plant response rating (soybean (Glycine max); [14]): 0
Plant response rating, Soybean (soybean (Glycine max); [15]): 5
Plant response rating, Soybean (soybean (Glycine max); [16]): 5
Plant response rating, Soybean (soybean (Glycine max); [17]): 0
Plant response rating, Soybean (soybean (Glycine max); [18]): 0
Plant response rating, Soybean (soybean (Glycine max); [19]): 5
Soybean plant response rating (soybean (Glycine max); [20]): 0
Soybean plant response rating (soybean (Glycine max); [21]): 0
Velvetleaf plant response rating [11, 14]: 75
Plant response rating, Velvetleaf [11, 15]: 90
Plant response rating, Velvetleaf [11, 16]: 90
Plant response rating, Velvetleaf [11, 17]: 80
Plant response rating, Velvetleaf [11, 18]: 85
Plant response rating, Velvetleaf [11, 19]: 95
Velvetleaf plant response rating [11, 20]: 95
Velvetleaf plant response rating [11, 21]: 85
Waterhemp plant response rating [12, 14]: 85
Plant response rating, Waterhemp [12, 15]: 80
Plant response rating, Waterhemp [12, 16]: 95
Plant response rating, Waterhemp [12, 17]: 100
Plant response rating, Waterhemp [12, 18]: 100
Plant response rating, Waterhemp [12, 19]: 100
Waterhemp plant response rating [12, 20]: 100
Waterhemp plant response rating [12, 21]: 90
Wheat plant response rating [13, 14]: 0
Plant response rating, Wheat [13, 15]: 0
Plant response rating, Wheat [13, 16]: 0
Plant response rating, Wheat [13, 17]: 0
Plant response rating, Wheat [13, 18]: 0
Plant response rating, Wheat [13, 19]: 0
Wheat plant response rating [13, 20]: 0
Wheat plant response rating [13, 21]: 0

COC(=O)Oc1c(C)nn(C)c(=O)c1-c1ccc(F)c2ccccc12 [Compound 130]
Plant response rating, Barnyardgrass [1, 22]: 30
Barnyardgrass plant response rating [1, 23]: 30
Plant response rating, Barnyardgrass [1, 15]: 35
Plant response rating, Barnyardgrass [1, 16]: 55
Plant response rating, Blackgrass [2, 22]: 30
Blackgrass plant response rating [2, 23]: 35
Plant response rating, Blackgrass [2, 16]: 60
Blackgrass plant response rating [2, 24]: 55
Plant response rating, Corn (corn (Zea mays); [22]): 5
Corn plant response rating (corn (Zea mays); [23]): 5
Plant response rating, Corn (corn (Zea mays); [16]): 15
Corn plant response rating (corn (Zea mays); [24]): 5
Plant response rating, Crabgrass, Large [3, 22]: 10
Crabgrass, Large plant response rating [3, 23]: 15
Plant response rating, Crabgrass, Large [3, 16]: 60
Crabgrass, Large plant response rating [3, 24]: 15
Plant response rating, Johnsongrass [4, 22]: 5
Johnsongrass plant response rating [4, 23]: 5
Plant response rating, Johnsongrass [4, 16]: 20
Johnsongrass plant response rating [4, 24]: 5
Plant response rating, Lambsquarters [5, 22]: 90
Lambsquarters plant response rating [5, 23]: 98
Plant response rating, Lambsquarters [5, 16]: 100
Lambsquarters plant response rating [5, 24]: 100
Plant response rating, Morningglory [6, 22]: 75
Morningglory plant response rating [6, 23]: 80
Plant response rating, Morningglory [6, 16]: 100
Morningglory plant response rating [6, 24]: 85
Plant response rating, Nutsedge, Yellow [7, 22]: 55
Nutsedge, Yellow plant response rating [7, 23]: 75
Plant response rating, Nutsedge, Yellow [7, 16]: 85
Nutsedge, Yellow plant response rating [7, 24]: 80
Plant response rating, Pigweed [8, 22]: 50
Pigweed plant response rating [8, 23]: 70
Plant response rating, Pigweed [8, 16]: 90
Pigweed plant response rating [8, 24]: 90
Plant response rating, Ragweed [9, 22]: 85
Ragweed plant response rating [9, 23]: 90
Plant response rating, Ragweed [9, 16]: 98
Ragweed plant response rating [9, 24]: 98
Plant response rating, Ryegrass, Italian [10, 22]: 90
Ryegrass, Italian plant response rating [10, 23]: 90
Plant response rating, Ryegrass, Italian [10, 16]: 95
Ryegrass, Italian plant response rating [10, 24]: 95
Plant response rating, Soybean (soybean (Glycine max); [22]): 10
Soybean plant response rating (soybean (Glycine max); [23]): 15
Plant response rating, Soybean (soybean (Glycine max); [16]): 50
Soybean plant response rating (soybean (Glycine max); [24]): 25
Plant response rating, Velvetleaf [11, 22]: 75
Velvetleaf plant response rating [11, 23]: 70
Plant response rating, Velvetleaf [11, 16]: 98
Velvetleaf plant response rating [11, 24]: 98
Plant response rating, Waterhemp [12, 22]: 70
Waterhemp plant response rating [12, 23]: 85
Plant response rating, Waterhemp [12, 16]: 98
Waterhemp plant response rating [12, 24]: 80
Plant response rating, Wheat [13, 22]: 0
Wheat plant response rating [13, 23]: 5
Plant response rating, Wheat [13, 16]: 15
Wheat plant response rating [13, 24]: 10
